Test results: US12331035B2, “Bicyclic compound and use thereof” (SK BIOPHARMACEUTICALS CO., LTD., priority 2019, dated 2025)

These compounds were tested against T1, PRMT5-MEP50 enzyme complex (Homo sapiens, UniProt O14744) (assay: In vitro PRMT5 enzyme activity assay (methylation of histone H4 arginine H4R3, ELISA absorbance at 450 nm)). Conditions: S-adenosylmethionine, histone H4 peptide, 2 hours at room temperature, 8 points 10 μM to 0.128 nM.
T1 construct: purchased BPS Bioscience (USA) 51045
T1 sequence (O14744 2-637 limits assumed): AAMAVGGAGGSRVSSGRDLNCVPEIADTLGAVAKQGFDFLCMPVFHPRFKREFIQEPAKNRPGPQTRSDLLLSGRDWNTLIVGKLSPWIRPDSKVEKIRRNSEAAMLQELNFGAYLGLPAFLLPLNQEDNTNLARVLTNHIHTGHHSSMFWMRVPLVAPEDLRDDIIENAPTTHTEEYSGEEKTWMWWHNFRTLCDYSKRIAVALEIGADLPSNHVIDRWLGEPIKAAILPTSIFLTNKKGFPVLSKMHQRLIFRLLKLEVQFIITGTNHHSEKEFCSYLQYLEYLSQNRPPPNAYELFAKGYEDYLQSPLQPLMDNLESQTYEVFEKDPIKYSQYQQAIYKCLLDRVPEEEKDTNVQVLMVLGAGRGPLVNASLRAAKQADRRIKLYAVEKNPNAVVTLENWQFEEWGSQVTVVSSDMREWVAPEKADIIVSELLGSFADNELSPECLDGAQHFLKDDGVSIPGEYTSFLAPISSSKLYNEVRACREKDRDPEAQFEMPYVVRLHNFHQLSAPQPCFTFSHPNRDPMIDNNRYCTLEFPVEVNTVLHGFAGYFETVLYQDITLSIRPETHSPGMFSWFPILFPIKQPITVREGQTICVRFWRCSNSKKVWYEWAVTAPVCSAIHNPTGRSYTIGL
T1 sequence (Q9BQA1 2-342 partner limits assumed): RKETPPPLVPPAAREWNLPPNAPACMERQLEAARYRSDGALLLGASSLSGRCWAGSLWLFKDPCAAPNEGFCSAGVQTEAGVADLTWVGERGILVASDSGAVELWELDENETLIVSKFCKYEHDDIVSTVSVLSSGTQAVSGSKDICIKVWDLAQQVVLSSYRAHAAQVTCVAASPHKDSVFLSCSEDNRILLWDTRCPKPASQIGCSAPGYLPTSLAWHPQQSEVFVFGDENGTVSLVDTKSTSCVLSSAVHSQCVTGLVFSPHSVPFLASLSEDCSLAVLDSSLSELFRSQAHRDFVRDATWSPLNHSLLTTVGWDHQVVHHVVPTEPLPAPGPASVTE
Format: biochemical
Protocol: Method for Measuring Enzyme Activity
In vitro assay: PRMT5-MEP50 enzyme complex, cofactor S-adenosylmethionine (SAM) and histone H4 peptide were reacted in vitro, and methylation of arginine (H4R3) —which is the third amino acid of histone H4—was measured in order to measure the enzyme activity of PRMT5.
Reagents: PRMT5-MEP50 enzyme complex (Catalog No. 51045), blocking buffer (52100-B), histone methyltransferase reaction buffer 2 (4×HMT assay buffer 2, Catalog No. 52170), and primary antibody (primary antibody 4-3, Catalog No. 52150) were purchased from BPS Bioscience (USA). The histone H4 peptide (1-20 amino acids) was custom made by Komabiotech (Korea) and used. S-adenosylmethionine was purchased from NEB (New England Biolabs, USA, Catalog No. B9003S). Plates for coating histone H4 peptide, washing buffer and color development reagent were purchased from the following vendors: Plate (Immobilizer™-Amino Plate, NUNC, Denmark, Catalog No. 436023), carbonate-bicarbonate buffer (Sigma-Aldrich, USA, Catalog No. C3041), washing buffer (10×TBST, Biosesang, Korea, Catalog No. T2005), TMB ELISA substrate (Abcam, UK, Catalog No. ab210902), horseradish peroxidase (HRP)-conjugated antibody (Abcam, UK, Catalog No. ab6721).
Experimental procedure: The histone H4 peptide was diluted with carbonate-bicarbonate buffer and prepared to 100 μg/mL, and then dispensed onto the plate per 100 μL and reacted at 37° C. for 1 hour. PRMT5-MEP50 enzyme complex and S-adenosylmethionine were diluted with histone methyltransferase reaction buffer to prepare 5 μg/mL and 2 μM, respectively, and then 20 μL of PRMT5-MEP50 enzyme complex and 25 μL of S-adenosylmethionine were dispensed onto the plate prepared above. 5 μL of the compound diluted with 10% dimethyl sulfoxide solution was added thereto and reacted at room temperature for 2 hours (final volume=50 μL). The concentration of the compound was diluted 1:5 from 10 μM until the lowest concentration of 0.128 nM, and 8 points were used for the test. After preparing the primary antibody by diluting 1:2000 with blocking buffer, 100 μL was added to the plate and reacted at room temperature for 1 hour. After preparing horseradish peroxidase-conjugated antibody by diluting 1:10,000 with blocking buffer, 100 μL was added to the plate and reacted at room temperature for 1 hour. 100 μL of TMB substrate was added and reacted for 3 minutes at room temperature, and 100 μL of 1 N sulfuric acid was then added to terminate the reaction. Then, the absorbance at 450 nm was measured to calculate the IC50 value of the compound. (+++: 1 to 100 nM, ++: greater than 100 to 1,000 nM, +: greater than 1,000 to 10,000 nM)
An IC50 of 0.001 to 0.1 µM was found for `O=C1c2ccc(Br)cc2CCN1C[C@H](O)CN1CCc2ccccc2C1` [Example 1, 6-bromo-2-[(2R)-3-(3,4-dihydro-1H-isoquinolin-2-yl)-2-hydroxy-propyl]-3,4-dihydroisoquinolin-1-one] in this work. An IC50 of 0.1 to 1 µM was found for `O=C1c2ccc(N3CCCC3)cc2CCN1C[C@H](O)CN1CCc2ccccc2C1` [Example 2, 2-[(2R)-3-(3,4-dihydro-1H-isoquinolin-2-yl)-2-hydroxy-propyl]-6-pyrrolidin-1-yl-3,4-dihydroisoquinolin-1-one] in this work. An IC50 of 0.001 to 0.1 µM was found for `O=C1c2ccc(NC3CCOCC3)cc2CCN1C[C@H](O)CN1CCc2ccccc2C1` [Example 5, 2-[(2R)-3-(3,4-dihydro-1H-isoquinolin-2-yl)-2-hydroxy-propyl]-6-(tetrahydropyran-4-ylamino)-3,4-dihydroisoquinolin-1-one] in this work. An IC50 of 0.001 to 0.1 µM was found for `O=C1c2ccc(NCC3CCCCC3)cc2CCN1C[C@H](O)CN1CCc2ccccc2C1` [Example 6, 6-(cyclohexylmethylamino)-2-[(2R)-3-(3,4-dihydro-1H-isoquinolin-2-yl)-2-hydroxy-propyl]-3,4-dihydroisoquinolin-1-one] in this work. An IC50 of 0.001 to 0.1 µM was found for `O=C1c2ccc(NCc3ccccc3)cc2CCN1C[C@H](O)CN1CCc2ccccc2C1` [Example 7, 6-(benzylamino)-2-[(2R)-3-(3,4-dihydro-1H-isoquinolin-2-yl)-2-hydroxy-propyl]-3,4-dihydroisoquinolin-1-one] in this work. An IC50 of 0.001 to 0.1 µM was found for `O=C1c2ccc(-c3ccncc3)cc2CCN1C[C@H](O)CN1CCc2ccccc2C1` [Example 8, 2-[(2R)-3-(3,4-dihydro-1H-isoquinolin-2-yl)-2-hydroxy-propyl]-6-(4-pyridyl)-3,4-dihydroisoquinolin-1-one] in this work. An IC50 of 0.001 to 0.1 µM was found for `O=C1c2ccc(-c3cccnc3)cc2CCN1C[C@H](O)CN1CCc2ccccc2C1` [Example 9, 2-[(2R)-3-(3,4-dihydro-1H-isoquinolin-2-yl)-2-hydroxy-propyl]-6-(3-pyridyl)-3,4-dihydroisoquinolin-1-one] in this work. An IC50 of 0.001 to 0.1 µM was found for `O=C1c2ccc(NCc3ccncc3)cc2CCN1C[C@H](O)CN1CCc2ccccc2C1` [Example 10, 2-[(2R)-3-(3,4-dihydro-1H-isoquinolin-2-yl)-2-hydroxy-propyl]-6-(4-pyridylmethylamino)-3,4-dihydroisoquinolin-1-one] in this work. An IC50 of 0.001 to 0.1 µM was found for `CN(c1ccc2c(c1)CCN(C[C@H](O)CN1CCc3ccccc3C1)C2=O)C1CCCCC1` [Example 11, 6-[cyclohexyl(methyl)amino]-2-[(2R)-3-(3,4-dihydro-1H-isoquinolin-2-yl)-2-hydroxy-propyl]-3,4-dihydroisoquinolin-1-one] in this work. An IC50 of 0.001 to 0.1 µM was found for `O=C1c2ccc(-c3ccnc(F)c3)cc2CCN1C[C@H](O)CN1CCc2ccccc2C1` [Example 12, 2-[(2R)-3-(3,4-dihydro-1H-isoquinolin-2-yl)-2-hydroxy-propyl]-6-(2-fluoro-4-pyridyl)-3,4-dihydroisoquinolin-1-one] in this work. An IC50 of 0.001 to 0.1 µM was found for `CCCc1ccc2c(c1)CCN(C[C@H](O)CN1CCc3ccccc3C1)C2=O` [Example 13, 2-[(2R)-3-(3,4-dihydro-1H-isoquinolin-2-yl)-2-hydroxy-propyl]-6-propyl-3,4-dihydroisoquinolin-1-one] in this work. An IC50 of 0.001 to 0.1 µM was found for `O=C1c2ccc(-c3ccc(F)nc3)cc2CCN1C[C@H](O)CN1CCc2ccccc2C1` [Example 15, 2-[(2R)-3-(3,4-dihydro-1H-isoquinolin-2-yl)-2-hydroxy-propyl]-6-(6-fluoro-3-pyridyl)-3,4-dihydroisoquinolin-1-one] in this work. An IC50 of 0.001 to 0.1 µM was found for `C[C@@H]1CN(c2ccc3c(c2)CCN(C[C@H](O)CN2CCc4ccccc4C2)C3=O)CCO1` [Example 16, 2-[(2R)-3-(3,4-dihydro-1H-isoquinolin-2-yl)-2-hydroxy-propyl]-6-[(2R)-2-methylmorpholin-4-yl]-3,4-dihydroisoquinolin-1-one] in this work. An IC50 of 0.001 to 0.1 µM was found for `CN1CCN(c2ccc3c(c2)CCN(C[C@H](O)CN2CCc4ccccc4C2)C3=O)CC1` [Example 17, 2-[(2R)-3-(3,4-dihydro-1H-isoquinolin-2-yl)-2-hydroxy-propyl]-6-(4-methylpiperazin-1-yl)-3,4-dihydroisoquinolin-1-one] in this work. An IC50 of 1 to 10 µM was found for `O=C1c2ccc(N3CCCC3=O)cc2CCN1C[C@H](O)CN1CCc2ccccc2C1` [Example 18, 2-[(2R)-3-(3,4-dihydro-1H-isoquinolin-2-yl)-2-hydroxy-propyl]-6-(2-oxopyrrolidin-1-yl)-3,4-dihydroisoquinolin-1-one] in this work. An IC50 of 0.1 to 1 µM was found for `CC(C)(C)C(=O)Nc1ccc2c(c1)CCN(C[C@H](O)CN1CCc3ccccc3C1)C2=O` [Example 19, N-[2-[(2R)-3-(3,4-dihydro-1H-isoquinolin-2-yl)-2-hydroxy-propyl]-1-oxo-3,4-dihydroisoquinolin-6-yl]-2,2-dimethylpropanamide] in this work. An IC50 of 0.1 to 1 µM was found for `O=C1c2ccc(N3CCC3=O)cc2CCN1C[C@H](O)CN1CCc2ccccc2C1` [Example 20, 2-[(2R)-3-(3,4-dihydro-1H-isoquinolin-2-yl)-2-hydroxy-propyl]-6-(2-oxoazetidin-1-yl)-3,4-dihydroisoquinolin-1-one] in this work. An IC50 of 0.1 to 1 µM was found for `O=C1c2ccc(N3CCCCC3=O)cc2CCN1C[C@H](O)CN1CCc2ccccc2C1` [Example 21, 2-[(2R)-3-(3,4-dihydro-1H-isoquinolin-2-yl)-2-hydroxy-propyl]-6-(2-oxo-1-piperidyl)-3,4-dihydroisoquinolin-1-one] in this work. An IC50 of 1 to 10 µM was found for `O=C1c2ccc(NCc3cccnc3)cc2CCN1C[C@H](O)CN1CCc2ccccc2C1` [Example 22, 2-[(2R)-3-(3,4-dihydro-1H-isoquinolin-2-yl)-2-hydroxy-propyl]-6-(3-pyridylmethylamino)-3,4-dihydroisoquinolin-1-one] in this work. An IC50 of 0.001 to 0.1 µM was found for `O=C1c2ccc(NCC3CCOCC3)cc2CCN1C[C@H](O)CN1CCc2ccccc2C1` [Example 23, 2-[(2R)-3-(3,4-dihydro-1H-isoquinolin-2-yl)-2-hydroxy-propyl]-6-(tetrahydropyran-4-ylmethylamino)-3,4-dihydroisoquinolin-1-one] in this work. An IC50 of 0.001 to 0.1 µM was found for `CC(=O)N1CCC(CNc2ccc3c(c2)CCN(C[C@H](O)CN2CCc4ccccc4C2)C3=O)CC1` [Example 24, 6-[(1-acetyl-4-piperidyl)methylamino]-2-[(2R)-3-(3,4-dihydro-1H-isoquinolin-2-yl)-2-hydroxy-propyl]-3,4-dihydroisoquinolin-1-one] in this work. An IC50 of 0.001 to 0.1 µM was found for `CC(C)(O)CNc1ccc2c(c1)CCN(C[C@H](O)CN1CCc3ccccc3C1)C2=O` [Example 25, 2-[(2R)-3-(3,4-dihydro-1H-isoquinolin-2-yl)-2-hydroxy-propyl]-6-[(2-hydroxy-2-methyl-propyl)amino]-3,4-dihydroisoquinolin-1-one] in this work. An IC50 of 0.001 to 0.1 µM was found for `O=C(Nc1ccc2c(c1)CCN(C[C@H](O)CN1CCc3ccccc3C1)C2=O)c1cccnc1` [Example 26, N-[2-[(2R)-3-(3,4-dihydro-1H-isoquinolin-2-yl)-2-hydroxy-propyl]-1-oxo-3,4-dihydroisoquinolin-6-yl]pyridine-3-carboxamide] in this work. An IC50 of 0.1 to 1 µM was found for `O=C(Nc1ccc2c(c1)CCN(C[C@H](O)CN1CCc3ccccc3C1)C2=O)c1ccncc1` [Example 27, N-[2-[(2R)-3-(3,4-dihydro-1H-isoquinolin-2-yl)-2-hydroxy-propyl]-1-oxo-3,4-dihydroisoquinolin-6-yl]pyridine-4-carboxamide] in this work. An IC50 of 0.1 to 1 µM was found for `CC1CC(C)CN(c2ccc3c(c2)CCN(C[C@H](O)CN2CCc4ccccc4C2)C3=O)C1` (stereo partly drawn) [Example 28, 2-[(2R)-3-(3,4-dihydro-1H-isoquinolin-2-yl)-2-hydroxy-propyl]-6-(3,5-dimethyl-1-piperidyl)-3,4-dihydroisoquinolin-1-one] in this work. An IC50 of 0.001 to 0.1 µM was found for `CC1CN(c2ccc3c(c2)CCN(C[C@H](O)CN2CCc4ccccc4C2)C3=O)CC(C)N1` (stereo partly drawn) [Example 29, 2-[(2R)-3-(3,4-dihydro-1H-isoquinolin-2-yl)-2-hydroxy-propyl]-6-(3,5-dimethylpiperazin-1-yl)-3,4-dihydroisoquinolin-1-one] in this work. An IC50 of 0.001 to 0.1 µM was found for `O=C1c2ccc(NCC3CCOC3)cc2CCN1C[C@H](O)CN1CCc2ccccc2C1` (stereo partly drawn) [Example 30, 2-[(2R)-3-(3,4-dihydro-1H-isoquinolin-2-yl)-2-hydroxy-propyl]-6-(tetrahydrofuran-3-ylmethylamino)-3,4-dihydroisoquinolin-1-one] in this work.
